Results taken from ChEMBL document CHEMBL5532635, “The role of natural anti-parasitic guided development of synthetic drugs for leishmaniasis” (Eur J Med Chem, 2023).
Converted amounts (≈) assume the structure as drawn. Blank lines part the entries; values can stand above or below the compound they belong to.

Assays:
Leishmania amazonensis [1] = test: Antileishmanial activity against Leishmania amazonensis promastigotes infected in BALB/c mouse assessed as reduction of IgG1 level at 400 mg/kg per day, ip administered for 30 days measured at 10 week by ELISA assay; type: functional, organism-based
Leishmania donovani [2] = test: Antileishmanial activity against Leishmania donovani BHU575 promastigotes assessed as cell viability by MTT assay; type: functional, organism-based
Leishmania tropica [3] = test: Antileishmanial activity against Leishmania tropica promastigotes assessed as inhibition of parasite growth; type: functional, organism-based
Leishmania infantum [4] = test: Antileishmanial activity against Leishmania infantum amastigotes infected in human THP-1 cells assessed as reduction in parasite growth incubated for 72 hrs by high content imaging analysis; type: functional, organism-based; conditions: THP-1, 72 h
Leishmania tropica [5] = test: Antileishmanial activity against Leishmania tropica amastigotes incubated for 24 hrs measured by alamar blue staining based fluorescence analysis; type: functional, organism-based
Leishmania tropica [6] = test: Antileishmanial activity against Leishmania tropica promastigotes incubated for 24 hrs measured by alamar blue staining based fluorescence analysis; type: functional, organism-based
Leishmania donovani [7] = test: Antileishmanial activity against Leishmania donovani promastigotes assessed as inhibition of parasite growth incubated for 4 hrs by MTT assay; type: functional, organism-based
Leishmania infantum [8] = test: Antileishmanial activity against Leishmania infantum promastigote assessed as reduction in parasite growth after 72 hrs by MTT assay; type: functional, organism-based
Leishmania amazonensis [9] = test: Antileishmanial activity against Leishmania amazonensis promastigotes; type: functional, organism-based
Leishmania amazonensis [10] = test: Antileishmanial activity against Leishmania amazonensis promastigotes assessed as reduction in parasite viability after 72 hrs by CCK-8 assay; type: functional, organism-based
Leishmania donovani [11] = test: Antileishmanial activity against Leishmania donovani promastigotes assessed as inhibition of parasite growth measured after 24 hrs by Alamar blue based analysis; type: functional, organism-based
Leishmania major [12] = test: Antileishmanial activity against Leishmania major promastigotes assessed as parasite growth inhibition incubated for 24 hrs by Alamar blue staining based assay; type: functional, organism-based
Leishmania infantum [13] = test: Antileishmanial activity against Leishmania infantum assessed as reduction in parasite growth; type: functional, organism-based
Leishmania donovani [14] = test: Antileishmanial activity against Leishmania donovani amastigotes assessed as parasite growth inhibition incubated for 72 hrs by MTS assay; type: functional, organism-based
Leishmania major [15] = test: Antileishmanial activity against Leishmania major promastigotes assessed as reduction in parasite growth incubated for 72 hrs by MTT assay; type: functional, organism-based
Leishmania major [16] = test: Antileishmanial activity against Leishmania major amastigotes assessed as reduction in parasite growth incubated for 72 hrs by MTT assay; type: functional, organism-based
Leishmania donovani [17] = test: Antileishmanial activity against Leishmania donovani amastigotes assessed as reduction in microbial growth; type: functional, organism-based
Leishmania donovani [18] = test: Antileishmanial activity against Leishmania donovani promastigotes assessed as reduction in parasite growth; type: functional, organism-based
Leishmania amazonensis [19] = test: Antileishmanial activity against Leishmania amazonensis amastigotes assessed as reduction in parasite growth; type: functional, organism-based
Leishmania amazonensis [20] = test: Antileishmanial activity against Leishmania amazonensis MHOM/BR/77/LTB001 assessed as parasite growth inhibition; type: functional, organism-based
Leishmania infantum [21] = test: Antileishmanial activity against Leishmania infantum MON-1 promastigotes assessed as reduction in parasite viability measured after 48 hrs by MTT assay; type: functional, organism-based; conditions: MON-1, 48 h
Leishmania infantum [22] = test: Antileishmanial activity against Leishmania infantum MHOM/MA/67/ITMAP263 promastigotes expressing red-shifted luciferase gene infected in mouse J774 cells incubated for 24 hrs by microplate luminometer analysis; type: functional, organism-based; conditions: MHOM/MA/67/ITMAP263, J774, 24 h
Leishmania donovani [23] = test: Antileishmanial activity against Leishmania donovani promastigotes at 25 uM; type: functional
Leishmania donovani [24] = test: Antileishmanial activity against Leishmania donovani promastigotes at 50 uM; type: functional
[25] = Cytotoxicity against mouse RAW264.7 cells assessed as reduction in cell viability measured after 24 hrs by CCK8 assay; type: toxicity, cell-based
Leishmania amazonensis [26] = test: Antileishmanial activity against Leishmania amazonensis promastigotes assessed as reduction in parasite growth measured after 24 hrs by MTT assay; type: functional, organism-based
Leishmania amazonensis [27] = test: Antileishmanial activity against Leishmania amazonensis amastigotes assessed as reduction in parasite growth measured after 24 hrs by MTT assay; type: functional, organism-based
Leishmania infantum [28] = test: Antileishmanial activity against Leishmania infantum promastigotes assessed as reduction in parasite viability measured after 48 hrs by MTT assay; type: functional, organism-based
Leishmania infantum [29] = test: Antileishmanial activity Leishmania infantum promastigotes assessed as reduction in parasite growth incubated for 72 hrs by alamar blue assay; type: functional, organism-based

SMILES: CC[C@@H]1CN2CCc3c([nH]c4ccccc34)[C@@H]2C[C@@H]1/C(=C\OC)C(=O)OC [CORYNANRHEIDINE]
IC50 (Leishmania amazonensis [1]): 2.81 µM

SMILES: CC1=CCC[C@H]2[C@](C)(Cc3cc(O)ccc3O)[C@@H](C)CC[C@]12C [AVAROL]
IC50 (Leishmania donovani [2]): 7.42 µM
IC50 (Leishmania tropica [3]): 7.08 µM
IC50 (Leishmania infantum [4]): 3.19 µM

SMILES: Cc1ccccc1C(=O)N/N=C1\C(=O)N(CC(O)COc2cc(=O)oc3ccccc23)c2ccccc21 (stereo not given)
IC50 (Leishmania tropica [5]): 4.13 µM
IC50 (Leishmania tropica [6]): 3.73 µM

SMILES: CCCCCCCCCCCCCCCCOP(=O)([O-])OCC[N+](C)(C)C [MILTEFOSINE]
IC50 (Leishmania donovani [7]): 3.19 µM

IC50 (Leishmania amazonensis [9]): 7.1 µM
SMILES: CC1(C)C=Cc2c(ccc3c2OCC2c4cc5c(cc4OC32)OCO5)O1 (stereo not given) [LEIOCARPIN]
IC50 (Leishmania infantum [8]): 15.5 µM
IC50 (Leishmania amazonensis [10]): 11.4 µM

SMILES: C[C@@H]1CC[C@@]2(C)C(C(=O)O)=CCC[C@@H]2[C@@]1(C)CCc1ccoc1
IC50 (Leishmania donovani [11]): 10 µM
IC50 (Leishmania major [12]): 10 µM

SMILES: C[C@@H]1[C@H](O)[C@@H](C)/C=C/C=C/C=C/C=C/C=C/C=C/C=C/[C@H](O[C@@H]2O[C@H](C)[C@@H](O)[C@H](N)[C@@H]2O)C[C@@H]2O[C@](O)(C[C@@H](O)C[C@@H](O)[C@H](O)CC[C@@H](O)C[C@@H](O)CC(=O)O[C@H]1C)C[C@H](O)[C@H]2C(=O)O [AMPHOTERICIN B]
IC50 (Leishmania donovani [7]): 0.046 µM

SMILES: Cc1cc(O)c(C(=O)Nc2ccc(Br)cc2)c(=O)n1C1CC1
IC50 (Leishmania infantum [13]): 55 µM

SMILES: C=C[C@H]1CN2CCc3c([nH]c4ccccc34)[C@@H]2C[C@@H]1/C(=C\OC)C(=O)OC
IC50 (Leishmania amazonensis [1]): 1.12 µM

SMILES: CCCn1c(C)cc(O)c(C(=O)Nc2ccc(Br)cc2)c1=O
IC50 (Leishmania infantum [13]): 55 µM

SMILES: C/C1=C\C(=O)OC(C(C)(C)C)CCCC(O)CCCC(O)CCCC(O)CCCC(O)CCCC(O)CCCC(O)CCCC(O)CCCCCC(O)C1 (stereo not given)
IC50 (Leishmania donovani [14]): 4.67 µM

SMILES: CN[C@H]1CCc2cc(OC)c(OC)c(OC)c2-c2ccc(OC)c(=O)cc21 [DEMECOLCINE]
IC50 (Leishmania major [15]): 0.7 µg/mL (≈ 1.88 µM)
IC50 (Leishmania major [16]): 14.8 µg/mL (≈ 39.8 µM)

SMILES: NC(=S)N/N=C(/C=C/c1cccnc1)c1cccc(NC(=O)Nc2ccc(Cl)cc2)c1
IC50 (Leishmania donovani [17]): 3.81 µM

SMILES: CN[C@@H]1C[C@H]2O[C@@](C)([C@@H]1OC)n1c3ccccc3c3c4c(c5c6ccccc6n2c5c31)C(=O)NC4=O
IC50 (Leishmania donovani [18]): 0.001 µM
IC50 (Leishmania amazonensis [19]): 0.0002 µM
IC50 (Leishmania amazonensis [20]): 0.007 µM

EC50 (Leishmania infantum [22]): 0.78 µM
SMILES: COc1cc(OC)c(C(=O)/C=C/c2cccc(C)c2)c([N+](=O)[O-])c1
IC50 (Leishmania infantum [21]): 74.1 µM

SMILES: COc1cc(/C=C2/Oc3cc(O)ccc3C2=O)cc(OC)c1
Activity (Leishmania donovani [23]): 106%
Activity (Leishmania donovani [24]): 109%

SMILES: Cc1cc(O)c(C(=O)Nc2ccccc2)c(=O)n1Cc1ccc(F)cc1
IC50 (Leishmania infantum [13]): 55 µM

SMILES: COc1c(O[C@@H]2O[C@H](CO)[C@@H](O)[C@H](O)[C@H]2O)cc2c(c1OC)-c1ccc(OC)c(=O)cc1[C@@H](NC(C)=O)CC2
IC50 (Leishmania major [15]): 0.2 µg/mL (≈ 0.365 µM)
IC50 (Leishmania major [16]): 4 µg/mL (≈ 7.31 µM)

SMILES: O=C(/C=C/c1ccc(F)cc1)c1ccccc1Cl
CC50 at 24 h [25]: 479 µM

SMILES: COc1ccc(C(O)C(C)Oc2ccc(C3OC(c4ccc(OC(C)C(O)c5ccc(OC)c(OC)c5)c(OC)c4)C(C)C3C)cc2OC)cc1OC (stereo not given)
IC50 (Leishmania amazonensis [26]): 35.4 µg/mL (≈ 48.3 µM)
IC50 (Leishmania amazonensis [27]): 20.4 µg/mL (≈ 27.8 µM)

SMILES: COc1cc2c(c(OC)c1O)-c1ccc(OC)c(=O)cc1[C@@H](NC(C)=O)CC2 [2-DESMETHYLCOLCHICIN]
IC50 (Leishmania major [15]): 0.5 µg/mL (≈ 1.3 µM)
IC50 (Leishmania major [16]): 10.2 µg/mL (≈ 26.5 µM)

SMILES: CCOC(=O)c1cc2c([nH]c3ccccc32)c(-c2cn(-c3ccccc3)nn2)n1
EC50 (Leishmania infantum [28]): 13.6 µM

SMILES: C=C[C@@H](c1cc(CC=C(C)C)ccc1O)c1cc(CC=C(C)C)c(OC)cc1O
IC50 (Leishmania infantum [8]): 5.2 µM
IC50 (Leishmania amazonensis [19]): 1.13 µM
IC50 (Leishmania amazonensis [10]): 4.5 µM

SMILES: COc1cc2c(c(OC)c1OC)-c1ccc(OC)c(=O)cc1[C@@H](NC(=O)CO)CC2 [COLCHIFOLINE]
IC50 (Leishmania major [15]): 0.7 µg/mL (≈ 1.68 µM)
IC50 (Leishmania major [16]): 14 µg/mL (≈ 33.7 µM)

SMILES: COc1cc2oc(=O)ccc2c(OC/C=C(\C)C/C=C/C(C)(C)OO)c1OC
EC50 (Leishmania infantum [29]): 26.2 µM

SMILES: COC1=C(C)O[C@H]2C[C@@]1(OC)n1c3ccccc3c3c4c(c5c6ccccc6n2c5c31)C(=O)NC4
IC50 (Leishmania donovani [18]): > 0.089 µM
IC50 (Leishmania amazonensis [10]): 0.0224 µM

SMILES: COc1cc2c(c(OC)c1OC)-c1ccc(OC)c(=O)cc1[C@@H](NC=O)CC2
IC50 (Leishmania major [16]): 10.2 µg/mL (≈ 26.5 µM)
